The text below walks through data of ChEMBL document CHEMBL5042539, “Structure-Guided Discovery of the Novel Covalent Allosteric Site and Covalent Inhibitors of Fructose-1,6-Bisphosphate Aldolase to Overcome the Azole Resistance of Candidiasis” (J Med Chem, 2022).

In brackets after ≈: the same amount, converted by molar mass. Activity calls are given as the source filed them. The rule behind the calls is not given here.

The test system of series [1] is Candida albicans. Description: Inhibition of wild type Candida albicans Fructose-1,6-Bisphosphate Aldolase transfected in Escherichia coli BL21 (DE3) at 50 uM incubated for 3 mins in presence of NADH by spectrophotometric analysis relative to control.
Series [2] can be described thus: Inhibition of wild type Candida albicans Fructose-1,6-Bisphosphate Aldolase transfected in Escherichia coli BL21 (DE3) incubated for 3 mins in presence of NADH by spectrophotometric analysis.
Series [3] concerns Candida albicans. Description: Antifungal activity against fluconazole resistant Candida albicans 7781 incubated for 48 hrs by CLSI based broth microdilution method. Type of series: functional. A general note: Dilution methods test growth across graded concentrations, often in twofold steps.
The test system of series [4] is Candida albicans. The series is described as follows: Antifungal activity against Candida albicans SC5314 incubated for 48 hrs by CLSI based broth microdilution method. Type of series: functional.
For series [5], the system named is Candida albicans. The series is described as follows: Antifungal activity against fluconazole resistant Candida albicans 904 incubated for 48 hrs by CLSI based broth microdilution method. Type of series: functional.
For series [6], the system named is Candida albicans. Description: Antifungal activity against fluconazole resistant Candida albicans 103 incubated for 48 hrs by CLSI based broth microdilution method. Type of series: functional.
A short description of series [7]: Cytotoxicity against human HaCaT cells. The series is classed as toxicity, cell-based.
In series [8] the test system is Candida albicans. The series is described as follows: Antifungal activity against azole-resistant Candida albicans 030410 assessed as inhibition of fungal filamentation by measuring reduction in yeast-hypha transition at 32 ug/ml by microscopic analysis. Type of series: functional, organism-based. As to conditions: dose 32.0 µg/ml.
Series [9] has as its system Candida albicans. Description: Antibiofilm activity against azole resistant Candida albicans 0304103 assessed as inhibition of biofilm formation by XTT assay. Conditions: dose 0-64 µg/ml. Type of series: functional, organism-based. In general terms: Tetrazolium dyes change colour on reduction, which living cells bring about.

One may read the inhibition as the relative decrease from the control value, in per cent. Turning to `Cn1sc(=O)n(Cc2ccccc2)c1=O`, in the series with Candida albicans [1], the inhibition was determined as 53.7%.
For orientation: IC50 means the midpoint of a concentration-inhibition curve. As to `O=c1[nH]sc2ccccc12`, the inhibition in the series on Candida albicans [1] is < 50%. In addition, in series [2], the IC50 is > 5000 nM.
Turning to `COC(=O)/C=C/C(=O)OC`, the inhibition in the series on Candida albicans [1] turned out to be 0.58%.
The term MIC80 denotes the lowest concentration that inhibits either 80% of growth or 80% of the strains tested, depending on the study. A high value points to weaker potency. As for `O=c1c2ccccc2[se]n1-c1ccc(-c2ccccc2)cc1`, the MIC80 against Candida albicans [3] was 64 µg/mL (≈ 183 µM); in the series with Candida albicans [4], 32 µg/mL (≈ 91.4 µM); in the series on Candida albicans [5], 64 µg/mL (≈ 183 µM); in the series with Candida albicans [6] it was 64 µg/mL (≈ 183 µM). The IC50 in series [2] was 60 nM.
Turning to `O=C(O)CCCCC1CCSS1` (stereo unspecified), the inhibition with Candida albicans [1] was determined as 80%.
With `O=c1c2ccccc2[se]n1-c1cccc(C(F)(F)F)c1`, the MIC80 against Candida albicans [3] was found to be 4 µg/mL (≈ 11.7 µM); with Candida albicans [4], 4 µg/mL (≈ 11.7 µM); with Candida albicans [5], 2 µg/mL (≈ 5.84 µM); with Candida albicans [6], 4 µg/mL (≈ 11.7 µM). For the same molecule, the results for the IC50 in series [2] and in [7] were 84 nM and > 32000 nM, respectively.
In the case of `O=c1c2ccccc2[se]n1Nc1ccccc1`, in [2], the IC50 is 96.3 nM.
For the molecule `CCCCc1ccc(-n2[se]c3ccccc3c2=O)cc1`, the MIC80 with Candida albicans [3] is 4 µg/mL (≈ 12.1 µM); in the series on Candida albicans [4] it was 8 µg/mL (≈ 24.2 µM); against Candida albicans [5], 8 µg/mL (≈ 24.2 µM); in the series on Candida albicans [6], 4 µg/mL (≈ 12.1 µM). Further, in series [2], the IC50 stood at 100 nM.
`CC(=O)c1ccc(-n2[se]c3ccccc3c2=O)cc1`: the MIC80 with Candida albicans [3] amounted to 8 µg/mL (≈ 25.3 µM); with Candida albicans [4], 16 µg/mL (≈ 50.6 µM); in the series with Candida albicans [5], 16 µg/mL (≈ 50.6 µM); in the series on Candida albicans [6] it was 8 µg/mL (≈ 25.3 µM). In [2], the IC50 stood at 17.3 nM.
Turning to `O=C(NC1CCCCC1)n1sc2ccccc2c1=O`, the IC50 in series [2] turned out to be 1110 nM.
Consider `CCCCCCNC(=O)n1cc(F)c(=O)[nH]c1=O`, for which, in the series on Candida albicans [1], the inhibition came to 62.2%.
`O=c1c2ccccc2[se]n1-c1ccc(-n2ccnc2)cc1`: in the series with Candida albicans [8], the outcome was Active. The MIC80 in the series on Candida albicans [3], with Candida albicans [4], in the series on Candida albicans [5] and with Candida albicans [6] was 4 µg/mL (≈ 11.8 µM) each time. Besides, the Activity entry with Candida albicans [9] was “Dose-Dependent Effect”. The half-maximal inhibitory concentration (IC50) in [2] was 45.8 nM.
`O=c1c2ccccc2[se]n1-c1ccccn1`: the MIC80 was 4 µg/mL (≈ 14.5 µM) against Candida albicans [3], 4 µg/mL (≈ 14.5 µM) against Candida albicans [4], 2 µg/mL (≈ 7.27 µM) with Candida albicans [5] and 4 µg/mL (≈ 14.5 µM) with Candida albicans [6]. The concentration for half-maximal inhibition (IC50) in [2] stood at 72.7 nM.
As for `CC(C)C[C@H](NC(=O)[C@H](Cc1ccccc1)NC(=O)c1cnccn1)B(O)O`, the inhibition with Candida albicans [1] is -0.52%.
With `Cc1ccc(-n2[se]c3ccccc3c2=O)cc1`, the MIC80 was found to be 2 µg/mL (≈ 6.94 µM) against Candida albicans [3], 4 µg/mL (≈ 13.9 µM) in the series with Candida albicans [4], 4 µg/mL (≈ 13.9 µM) in the series on Candida albicans [5] and 2 µg/mL (≈ 6.94 µM) in the series on Candida albicans [6]. The results for the IC50 in [2] and in [7] were 13.3 nM and > 32000 nM, respectively.
Regarding `O=C(c1ccccc1)c1ccc(-n2[se]c3ccccc3c2=O)cc1`, the result in the series with Candida albicans [8] was Active. In addition, the MIC80 in the series on Candida albicans [3], against Candida albicans [4], against Candida albicans [5] and in the series on Candida albicans [6] was 4 µg/mL (≈ 10.6 µM) each time. Moreover, in the series on Candida albicans [9], the Activity result was “Dose-Dependent Effect”. For the same molecule, the IC50 in series [2] was 31 nM.
In the case of `CCN(CC)C(=S)SSC(=S)N(CC)CC`, in the series with Candida albicans [1], the inhibition amounted to 83%.
Take `COc1ccc(-n2[se]c3ccccc3c2=O)cc1`: the MIC80 in the series with Candida albicans [3], against Candida albicans [4], in the series with Candida albicans [5] and in the series on Candida albicans [6] was 4 µg/mL (≈ 13.1 µM) in each case. Also, in [2], the IC50 amounted to 91 nM.
`O=C(NCc1ccccc1)n1sc2ccccc2c1=O`: the half-inhibitory concentration (IC50) in series [2] came out at 370 nM.
On to `O=c1c2ccccc2[se]n1Cc1ccccc1`, for which the MIC80 in the series with Candida albicans [3] came out at 4 µg/mL (≈ 13.9 µM); with Candida albicans [4] it was 2 µg/mL (≈ 6.94 µM); in the series with Candida albicans [5] it was 4 µg/mL (≈ 13.9 µM); with Candida albicans [6], 4 µg/mL (≈ 13.9 µM). Moreover, the IC50 in [2] is 118 nM.
`O=c1c2ccccc2sn1S(=O)(=O)c1ccccc1`: in the series on Candida albicans [1], the inhibition is < 50%. In series [2], the IC50 is > 50000 nM.
For the molecule `CCCCNC(=O)Nc1ccc(-n2[se]c3ccccc3c2=O)cc1`, the MIC80 against Candida albicans [3], with Candida albicans [4], against Candida albicans [5] and with Candida albicans [6] was 8 µg/mL (≈ 20.6 µM) in each case. Further, in [2], the IC50 is 93 nM.
With `O=C(C(=O)n1sc2ccccc2c1=O)c1ccccc1`, in [2], the concentration for half-maximal inhibition (IC50) was determined as 15700 nM.
Consider `O=C(O)c1ccc(-n2[se]c3ccccc3c2=O)cc1`, for which the MIC80 against Candida albicans [3], against Candida albicans [4], against Candida albicans [5] and against Candida albicans [6] was 64 µg/mL (≈ 201 µM) each time. Further, the IC50 in [2] was 44.5 nM.
On to `N#Cc1ccc(-n2[se]c3ccccc3c2=O)cc1`, for which the MIC80 with Candida albicans [3] was found to be 8 µg/mL (≈ 26.7 µM); in the series with Candida albicans [4], 8 µg/mL (≈ 26.7 µM); in the series on Candida albicans [5], 16 µg/mL (≈ 53.5 µM); in the series on Candida albicans [6], 16 µg/mL (≈ 53.5 µM). Further, the IC50 in series [2] came out at 38.9 nM.
As for `COC(=O)c1ccc(-n2[se]c3ccccc3c2=O)cc1`, the MIC80 with Candida albicans [3] is 8 µg/mL (≈ 24.1 µM); in the series on Candida albicans [4], 8 µg/mL (≈ 24.1 µM); with Candida albicans [5] it was 8 µg/mL (≈ 24.1 µM); in the series with Candida albicans [6], 4 µg/mL (≈ 12 µM). The IC50 in series [2] worked out at 120 nM.
With `O=c1c2ccccc2sn1-c1ccccc1`, the values for the IC50 in [2] and in series [7] were 242 nM and > 32000 nM, respectively.
Consider `C[C@@H]1O[C@@H]1P(=O)(O)O`, for which the inhibition in the series on Candida albicans [1] amounted to 0.32%.
As to `O=c1c2ccccc2[se]n1CCc1ccccc1`, the MIC80 came to 2 µg/mL (≈ 6.62 µM) in the series on Candida albicans [3], 4 µg/mL (≈ 13.2 µM) against Candida albicans [4], 4 µg/mL (≈ 13.2 µM) in the series on Candida albicans [5] and 4 µg/mL (≈ 13.2 µM) against Candida albicans [6]. In addition, in [2], the IC50 stood at 22.5 nM.
As for `O=c1c2ccccc2[se]n1-c1nccs1`, the MIC80 in the series on Candida albicans [3] amounted to 8 µg/mL (≈ 28.4 µM); in the series with Candida albicans [4] it was 4 µg/mL (≈ 14.2 µM); with Candida albicans [5], 4 µg/mL (≈ 14.2 µM); against Candida albicans [6] it was 8 µg/mL (≈ 28.4 µM). In series [2], the IC50 is 113 nM.
Regarding `NC(=O)c1ccc(-n2[se]c3ccccc3c2=O)cc1`, the MIC80 in the series on Candida albicans [3], with Candida albicans [4], in the series on Candida albicans [5] and with Candida albicans [6] was 64 µg/mL (≈ 202 µM) throughout. Moreover, the IC50 in [2] came to 85 nM.
As to `O=C(NCc1ccccc1)n1[se]c2ccccc2c1=O`, the MIC80 against Candida albicans [3] was found to be 8 µg/mL (≈ 24.2 µM); with Candida albicans [4] it was 16 µg/mL (≈ 48.3 µM); in the series on Candida albicans [5], 16 µg/mL (≈ 48.3 µM); in the series with Candida albicans [6] it was 8 µg/mL (≈ 24.2 µM). In addition, the 50% inhibitory concentration (IC50) in series [2] amounted to 97.3 nM.
In the case of `O=c1c2ccccc2[se]n1-c1ccc(Cl)cc1Cl`, the MIC80 is 2 µg/mL (≈ 5.83 µM) against Candida albicans [3], 4 µg/mL (≈ 11.7 µM) against Candida albicans [4], 4 µg/mL (≈ 11.7 µM) against Candida albicans [5] and 2 µg/mL (≈ 5.83 µM) against Candida albicans [6]. The IC50 is 76 nM in series [2] and > 32000 nM in [7].
On to `O=C(Cc1ccccc1)n1sc2ccccc2c1=O`, for which, in [2], the IC50 turned out to be 488 nM.
On the same count and under the same terms, then `O=c1c2ccccc2[se]n1-c1ccc(N2CCOCC2)cc1`, with 130 nM.
`OC(Cn1cncn1)(Cn1cncn1)c1ccc(F)cc1F` [FLUCONAZOLE]: the outcome in the series on Candida albicans [8] was inactive. In addition, the MIC80 in the series on Candida albicans [3] was > 64 µg/mL; in the series on Candida albicans [4], 0.25 µg/mL (≈ 0.816 µM); in the series with Candida albicans [5], > 64 µg/mL; against Candida albicans [6], > 64 µg/mL. The result in the series with Candida albicans [9] was Active.
As to `CC(C)c1ccc(-n2[se]c3ccccc3c2=O)cc1`, the MIC80 was found to be 2 µg/mL (≈ 6.32 µM) in the series on Candida albicans [3], 4 µg/mL (≈ 12.6 µM) against Candida albicans [4], 4 µg/mL (≈ 12.6 µM) with Candida albicans [5] and 2 µg/mL (≈ 6.32 µM) in the series with Candida albicans [6]. Also, the results for the IC50 in series [2] and in series [7] were 110 nM and > 32000 nM, respectively.
As to `CC(=O)Nc1ccc(S(=O)(=O)n2sc3ccccc3c2=O)cc1`, in the series with Candida albicans [1], the inhibition is < 50%. In series [2], the IC50 is > 50000 nM.
For the molecule `O=c1c2ccccc2[se]n1-c1ccc(F)cc1F`, the MIC80 against Candida albicans [3] stood at 2 µg/mL (≈ 6.45 µM); in the series on Candida albicans [4], 4 µg/mL (≈ 12.9 µM); against Candida albicans [5], 4 µg/mL (≈ 12.9 µM); against Candida albicans [6], 4 µg/mL (≈ 12.9 µM). The IC50 in series [2] was 84 nM; in [7], > 32000 nM.
